Measured values as given in patent US20240238314A1, “TREATMENT OF ESSENTIAL TREMOR” (Sage Therapeutics, Inc., priority 2021, published 2024).
Entries after “also recorded” stand apart in the source; their conditions may differ.

What was measured:
Format in all cases: in vivo, human
[1] = system: individuals with essential tremor; test: Phase 2 study, Compound 1 60 mg once daily for 28 days: TETRAS performance subscale total score; conditions: Full Analysis Set
Description: As used herein, “The Essential Tremor Rating Assessment Scale (TETRAS) performance subscale total score” refers to an assessment scale for essential tremor developed by The Tremor Research Group (Elble, R. J., J. Neurol. Neuromedicine 1(4):34-38 (2016); Elble, R. J. et. al., Mov. Disord. 27(12); 1567-1569 (2012)). The TETRAS […] performance subscale includes 9 metrics or characteristics, wherein each metric or characteristic is scored 0 to 4. Some metrics or characteristics are performed on both right and left limbs and/or include multiple subitems. Scores for each of the 9 characteristics are then added to give a total score of no greater than 64. The 9 metrics or characteristics include:
Participants were 18 to 80 years of age, inclusive, diagnosed of ET of at least 3 years duration with scores of at least 1.5 for each of the six items that comprised the combined total upper limb TETRAS (total performance subscale part 4) with the total score for the dominant upper limb (the sum of the 3 items for either the right or left upper limb, whichever is dominant) being at least 5.5, at both Screening and predose on Day 1.
(§1) Participants were randomized to receive Compound 1 60 mg or placebo once daily in the morning on a 1:1 basis. If participants reported a TEAE considered by investigator to be related to Compound 1 and not tolerable, investigator might reduce the dose of Compound 1 from 60 mg in 15 mg decrements (i.e., 60 mg, to 45 mg, to 30 mg), as medically appropriate. If intolerable TEAEs persist at the 30 mg dose, Compound 1 was permanently stopped.
This study included a Screening Period of up to 28 days, a 29-day treatment period consisting of 28 days of dosing with the end of treatment visit intended to be on Day 29 at trough, and a 14-day follow-up period relative to final dose. Study patients were not taking other medications for essential tremor during the 28-day treatment period.

[2] = system: individuals with essential tremor; test: Phase 2 study, Compound 1 60 mg once daily for 28 days: TETRAS ADL total score
[3] = system: individuals with essential tremor; test: Phase 2 study, Compound 1 60 mg once daily for 28 days: safety and tolerability (TEAEs, dose reduction, discontinuation; Safety Set)
Description: • Incidence of treatment-emergent adverse events (TEAEs). • Safety and tolerability of Compound 1 as assessed by change from baseline in vital signs, electrocardiograms (ECGs), clinical laboratory parameters, and Columbia-Suicide Severity Rating Scale (C-SSRS). • Physician Withdrawal Checklist (PWC-20).
as §1
Participants were monitored for safety during the Treatment and Follow-up Periods (through Study Day 45 [±3 days]) including monitoring for AEs/serious AEs (SAEs), routine clinical laboratory assessments, physical examination, vital signs, and ECG, etc.
Safety Set: defined as all participants who received at least one dose of Compound 1. The Safety Set was used to provide descriptive summaries of the safety data.
The safety and tolerability of Compound 1 were evaluated by adverse events, concomitant medication usage, changes from baseline in physical examination, vital signs, clinical laboratory evaluations, and 12-lead ECG. Suicidality was monitored by the C-SSRS. Safety data were listed by subject and by study drug and summarized descriptively. All safety summaries were performed on the Safety Set.
The incidence of adverse events were summarized by system organ class, and preferred term for subjects in Safety Set.

[4] = Safety Set, N = 34, listed as Cmpd 1

Structure (SMILES): COC[C@@]1(O)CC[C@H]2[C@@H](CC[C@@H]3[C@@H]2CC[C@]2(C)[C@@H](C(=O)Cn4nnc(C)n4)CC[C@@H]32)C1 [Compound 1]
- LSMean difference vs placebo in change from baseline in TETRAS performance subscale total score ([1]; Day 8): −1.26
- Model-based LSMean (SE) change from baseline in TETRAS performance subscale total score ([1]; Day 8): −3.55 (0.780)
- LSMean difference vs placebo in change from baseline in TETRAS performance subscale total score ([1]; Day 15, 5 hr postdose): −1.52
- Model-based LSMean (SE) change from baseline in TETRAS performance subscale total score ([1]; Day 15, 5 hr postdose): −5.90 (1.015)
- LSMean difference vs placebo in change from baseline in TETRAS performance subscale total score ([1]; Day 15, 8 hr postdose): 0.01
- Model-based LSMean (SE) change from baseline in TETRAS performance subscale total score ([1]; Day 15, 8 hr postdose): −4.61 (0.954)
- LSMean difference vs placebo in change from baseline in TETRAS performance subscale total score ([1]; Day 15, predose): −0.91
- Model-based LSMean (SE) change from baseline in TETRAS performance subscale total score ([1]; Day 15, predose): −3.46 (0.878)
- LSMean difference vs placebo in change from baseline in TETRAS performance subscale total score ([1]; Day 22): −0.24
- Model-based LSMean (SE) change from baseline in TETRAS performance subscale total score ([1]; Day 22): −3.16 (0.914)
- LSMean difference vs placebo in change from baseline in TETRAS performance subscale total score ([1]; Day 29): −0.32 (−2.78, 2.14)
- Model-based LSMean (SE) change from baseline in TETRAS performance subscale total score ([1]; Day 29): −3.22 (0.922)
- LSMean difference vs placebo in change from baseline in TETRAS performance subscale total score ([1]; Day 29, listed as Cmpd 1): −0.32
- LSMean difference vs placebo in change from baseline in TETRAS performance subscale total score ([1]; Day 42): 2.28
- Model-based LSMean (SE) change from baseline in TETRAS performance subscale total score ([1]; Day 42): −1.59 (0.820)
- LSMean Difference (CI) vs placebo in CFB in TETRAS ADL total score ([2]; Baseline TETRAS ADL ≥ 28, Day 29): −1.47
- LSMean difference vs placebo in change from baseline in TETRAS ADL total score ([2]; Full Analysis Set, Day 8): −2.80
- Change from baseline in TETRAS ADL subscale total score compared with placebo, in words ([2]; Full Analysis Set, Day 29): numerically superior to placebo but failed to reach statistical significance
- LSMean difference vs placebo in change from baseline in TETRAS ADL total score ([2]; Full Analysis Set, Day 29): −1.37 (−3.81, 1.08)
- Participants with early discontinuation of the study at 60 mg, number [3]: 5
- Down-titration of dose, percent of patients ([3]; 60 mg down-titrated to 45 mg or 30 mg): 62%
- Early treatment discontinuation, reason Physician Decision, number ([3]; N = 34): 1
- Early treatment discontinuation, reason Physician Decision, percent ([3]; N = 34): 2.9%
- Early treatment discontinuation, reason Subject was lost to follow up, number ([3]; N = 34): 0
- Early treatment discontinuation, reason Withdrawal by Subject, number ([3]; N = 34): 3
- Early treatment discontinuation, reason Withdrawal by Subject, percent ([3]; N = 34): 8.8%
- TEAE Asthenia, number of participants ([3]; Safety Set, N = 34): 1
- TEAE Asthenia, percent of participants ([3]; Safety Set, N = 34): (2.9%)
- TEAE Balance disorder, number of participants ([3]; Safety Set, N = 34): 5
- TEAE Balance disorder, percent of participants ([3]; Safety Set, N = 34): 15%
- TEAE Coordination abnormal, number of participants ([3]; Safety Set, N = 34): 1
- TEAE Coordination abnormal, percent of participants ([3]; Safety Set, N = 34): (2.9%)
- TEAE Diarrhoea, number of participants ([3]; Safety Set, N = 34): 2
- TEAE Diarrhoea, percent of participants ([3]; Safety Set, N = 34): (5.9%)
- TEAE Diplopia, number of participants ([3]; Safety Set, N = 34): 4
- TEAE Diplopia, percent of participants ([3]; Safety Set, N = 34): 12%
- TEAE Disturbance in attention, number of participants ([3]; Safety Set, N = 34): 3
- TEAE Disturbance in attention, percent of participants ([3]; Safety Set, N = 34): (8.8%)
- TEAE Dizziness, number of participants ([3]; Safety Set, N = 34): 13
- TEAE Dizziness, percent of participants ([3]; Safety Set, N = 34): 38%
- TEAE Dysarthria, number of participants ([3]; Safety Set, N = 34): 4
- TEAE Dysarthria, percent of participants ([3]; Safety Set, N = 34): 12%
- TEAE Fatigue, number of participants ([3]; Safety Set, N = 34): 5
- TEAE Fatigue, percent of participants ([3]; Safety Set, N = 34): (14.7%)
- TEAE Gait disturbance, number of participants ([3]; Safety Set, N = 34): 4
- TEAE Gait disturbance, percent of participants ([3]; Safety Set, N = 34): 12%
- TEAE Headache, number of participants ([3]; Safety Set, N = 34): 2
- TEAE Headache, percent of participants ([3]; Safety Set, N = 34): (5.9%)
- TEAE Insomnia, number of participants ([3]; Safety Set, N = 34): 1
- TEAE Insomnia, percent of participants ([3]; Safety Set, N = 34): (2.9%)
- TEAE Irritability, number of participants ([3]; Safety Set, N = 34): 0
- TEAE Lethargy, number of participants ([3]; Safety Set, N = 34): 2
- TEAE Lethargy, percent of participants ([3]; Safety Set, N = 34): (5.9%)
- TEAE Mental status changes, number of participants ([3]; Safety Set, N = 34): 2
- TEAE Mental status changes, percent of participants ([3]; Safety Set, N = 34): (5.9%)
- TEAE Myalgia, number of participants ([3]; Safety Set, N = 34): 0
- TEAE Myoclonus, number of participants ([3]; Safety Set, N = 34): 3
- TEAE Myoclonus, percent of participants ([3]; Safety Set, N = 34): (8.8%)
- TEAE Paraesthesia, number of participants ([3]; Safety Set, N = 34): 2
- TEAE Paraesthesia, percent of participants ([3]; Safety Set, N = 34): (5.9%)
- TEAE Somnolence, number of participants ([3]; Safety Set, N = 34): 23
- TEAE Speech disorder, number of participants ([3]; Safety Set, N = 34): 2
- TEAE Speech disorder, percent of participants ([3]; Safety Set, N = 34): (5.9%)
- TEAE Urinary tract infection, number of participants ([3]; Safety Set, N = 34): 1
- TEAE Urinary tract infection, percent of participants ([3]; Safety Set, N = 34): (2.9%)
- TEAE Balance disorder, percent of participants [3, 4]: (14.7%)
- TEAE Diplopia, percent of participants [3, 4]: (11.8%)
- TEAE Dizziness, percent of participants [3, 4]: (38.2%)
- TEAE Dysarthria, percent of participants [3, 4]: (11.8%)
- TEAE Gait disturbance, percent of participants [3, 4]: (11.8%)
- TEAE Somnolence, percent of participants [3, 4]: (67.6%)
- Discontinuations noted, of patients receiving Compound 1 ([3]; in vivo): 3800
- Participants with early discontinuation of the study at 60 mg, percent ([3]; in vivo): 14.7%
- Severe adverse events (SAEs) reported by one participant, in words ([3]; individual participants of the Compound 1 group): mental status changes; also recorded: dehydration; also recorded: headache; also recorded: transient ischaemic attack
- Early treatment discontinuation due to adverse event (TEAEs leading to treatment discontinuation), number ([3]; of 34): 9
- Early treatment discontinuation due to adverse event (TEAEs leading to treatment discontinuation), percent ([3]; of 34): 26.5%
- Participants reporting TEAEs leading to study discontinuation, number ([3]; of 34): 4
- Participants reporting TEAEs leading to study discontinuation, percent ([3]; of 34): 11.8%
- Participants reporting TEAEs resulting in treatment dose reduction, number ([3]; of 34): 21
- Participants reporting TEAEs resulting in treatment dose reduction, percent ([3]; of 34): 61.8%
- Participants reporting severe TEAEs, number ([3]; of 34): 11
- Participants reporting severe TEAEs, percent ([3]; of 34): 32.4%
- Participants reporting treatment-emergent adverse events (TEAEs), number ([3]; of 34): 33
- Participants reporting treatment-emergent adverse events (TEAEs), percent ([3]; of 34): 97.1%
- Participants who completed the study at 60 mg dose, number ([3]; of 34): 8
- Participants who completed the study at 60 mg dose, percent ([3]; of 34): 23.5%
- Participants who had dose reduced to 30 mg from 60 mg directly, number ([3]; of 34): 2
- Participants who had dose reduced to 30 mg from 60 mg directly, percent ([3]; of 34): 5.9%
- Participants who had dose reduced to 45 mg, number ([3]; of 34): 19
- Participants who had dose reduced to 45 mg, percent ([3]; of 34): 55.9%
